In patent EP0940081A1, “Combinations of active agents and disinfectants, preservatives and antiseptics containing same” (Bode Chemie GmbH & Co., priority 1998, dated 1999):

Tests used:
Enterococcus faecium = test: Agar incorporation test, bacteriostatic activity; assay type: cell-based; parameters: key: ⊕⊕: ungehemmtes Wachstum; ⊕: vermindertes Wachstum; -: absolute Hemmung (a. H.); details: 24 h bei 36 °C
From the text: (§1) Methodik: Percarbamid und Dodecylthiouroniumchlorid werden unter städigem Durchmischen bis zur vollständigen Homogenisierung erwärmt. Die Prüfung der Kombination im Vergleich zu den entsprechenden Monowirkstoffen auf bakteriostatische Wirksamkeit erfolgte im Agarinkorporationstest. Die zu untersuchenden Substanzen wurden in Wasser standardisierter Härte gelöst. Die Konzentration der Testsubstanzen im Nähragar wurde in einer geometrischen Reihe auf der Basis 2 abgestuft. Zum Beimpfen der Testplatten wurden die im Beispiel 1 genannten Testkeime 6 h in Caseinpepton-Sojamehlpepton-Lösung bebrütet und so in eine logarithmische Wachstumsphase gebracht. Danach wurden die Agarplatten sternförmig sektorenweise mit jeweils einer ? abgestrichenen Öse beimpft. Der Sektor von Proteus mirabilis wurde durch Gräben abgetrennt, um das Schwärmen zu verhindern. Nach 24 h Bebrütung bei 36 °C erfolgte die Bewertung des Bakterienwachstums unter Vergleich mit substanzfreien Kontrollplatten nach folgendem Schema: ++++ ungehemmtes Wachstum +++ geringe Wachstumshemmung (maximal ¾ des Wachstums der Kontrollen) ++ mäßige Wachstumshemmung (maximal ½ des Wachstums der Kontrollen) + starke Wachstumshemmung (maximal ¼ des Wachstums der Kontrollen) Das sog. ? verminderte Wachstum" (v. W.) umfaßt die Bereiche + bis +++ - absolute Hemmung (a. H.)
(§2) In den Tabellen 5, 6 und 7 bedeuten ⊕⊕ ungehemmtes Wachstum und ⊕ vermindertes Wachstum.

Escherichia coli = test: Agar incorporation test, bacteriostatic activity; assay type: cell-based; parameters: key: ⊕⊕: ungehemmtes Wachstum; ⊕: vermindertes Wachstum; -: absolute Hemmung (a. H.); details: 24 h bei 36 °C
From the text: as §1, §2

Proteus mirabilis = test: Agar incorporation test, bacteriostatic activity; assay type: cell-based; parameters: key: ⊕⊕: ungehemmtes Wachstum; ⊕: vermindertes Wachstum; -: absolute Hemmung (a. H.); details: 24 h bei 36 °C
From the text: as §1, §2

Staphylococcus aureus = test: Agar incorporation test, bacteriostatic activity; assay type: cell-based; parameters: key: ⊕⊕: ungehemmtes Wachstum; ⊕: vermindertes Wachstum; -: absolute Hemmung (a. H.); details: 24 h bei 36 °C
From the text: as §1, §2

Pseudomonas aeruginosa = test: Agar incorporation test, bacteriostatic activity; assay type: cell-based; parameters: key to Bakteriostatische Wirksamkeit (Wachstum): ⊕⊕: ungehemmtes Wachstum; ⊕: vermindertes Wachstum; -: absolute Hemmung (a. H.); details: for Bakteriostatische Wirksamkeit (Wachstum): 24 h bei 36 °C
From the text: as §1, §2

[1] = system: Sporen von Bacillus subtilis var. niger ATCC 9372; test: Sporicidal activity on spore test strips; assay type: cell-based; details: Monowirkstoff; Einwirkungszeit 3 Tage
From the text: Methodik: Kommerzielle Teststreifen mit 10^6 Sporen von Bacillus subtilis var. niger ATCC 9372 (BAG-Bio Strips, Biologische Analysensystem GmbH Lich) wurden für 3 Tage in eine Lösung der Prüfsubstanz eingelegt. Danach wurden die Teststreifen in eine Nährlösung überführt und 7 Tage bebrütet.

[2] = system: FL-Linie (menschliche Amnionzellen); test: Cytotoxicity, cell count of monolayer culture after 24 h exposure; assay type: cell-based, human; details: for Median der Zellzahl: 24 h
Experimental: Methodik: Die Zytotoxizität wird an der FL-Linie (menschliche Amnionzellen) geprüft. 2-3 Tage nach der Zelleinsaat werden die Zellen, nachdem sie als einschichtige Zellkultur (Monolayer) vorliegen, nach Medienwechsel für 24 h mit der Prüfsubstanz exponiert, danach abgelöst und die Zellzahl in % zur Kontrolle mit dem Zellzähler Universal 87001 (mölab, Hilden) ermittelt.

[3] = system: humanen Amnionepithelzellen; assay type: cell-based, human
From the text: Methodik: Die Untersuchungen wurden an einer Perfusionszellkultur mit humanen Amnionepithelzellen durchgeführt. Der Glucoseverbrauch wurde kontinuierlich von 1 bis 96 Stunden biosensorisch gemessen (Jülich et al., im Druck). Die Prüfsubstanzen wirkten von der 25. bis 48. Stunde ein.

[4] = Konzentration in Wasser 0,0015 %
[5] = Konzentration in Wasser 0,003 %
[6] = Konzentration in Wasser 0,006 %
[7] = Konzentration in Wasser 0,012 %
[8] = Konzentration in Wasser 0,025 %

Substance: Wasserstoffperoxid
- Bakteriostatische Wirksamkeit (Wachstum) (Enterococcus faecium; Konzentration in Wasser 0,1 %): -
- Bakteriostatische Wirksamkeit (Wachstum) (Enterococcus faecium; Konzentration in Wasser 0,2 %): -
- Bakteriostatische Wirksamkeit (Wachstum) (Enterococcus faecium; Konzentration in Wasser 0,4 %): -
- Bakteriostatische Wirksamkeit (Wachstum) (Enterococcus faecium; Konzentration in Wasser 0,05 %): -
- Bakteriostatische Wirksamkeit (Wachstum) (Enterococcus faecium; Konzentration in Wasser 0,8 %): -
- Bakteriostatische Wirksamkeit (Wachstum) (Enterococcus faecium; [4]): ⊕⊕
- Bakteriostatische Wirksamkeit (Wachstum) (Enterococcus faecium; [5]): ⊕⊕
- Bakteriostatische Wirksamkeit (Wachstum) (Enterococcus faecium; [6]): ⊕
- Bakteriostatische Wirksamkeit (Wachstum) (Enterococcus faecium; [7]): -
- Bakteriostatische Wirksamkeit (Wachstum) (Enterococcus faecium; [8]): -
- Bakteriostatische Wirksamkeit (Wachstum) (Escherichia coli; Konzentration in Wasser 0,1 %): -
- Bakteriostatische Wirksamkeit (Wachstum) (Escherichia coli; Konzentration in Wasser 0,2 %): -
- Bakteriostatische Wirksamkeit (Wachstum) (Escherichia coli; Konzentration in Wasser 0,4 %): -
- Bakteriostatische Wirksamkeit (Wachstum) (Escherichia coli; Konzentration in Wasser 0,05 %): -
- Bakteriostatische Wirksamkeit (Wachstum) (Escherichia coli; Konzentration in Wasser 0,8 %): -
- Bakteriostatische Wirksamkeit (Wachstum) (Escherichia coli; [4]): ⊕⊕
- Bakteriostatische Wirksamkeit (Wachstum) (Escherichia coli; [5]): ⊕⊕
- Bakteriostatische Wirksamkeit (Wachstum) (Escherichia coli; [6]): ⊕⊕
- Bakteriostatische Wirksamkeit (Wachstum) (Escherichia coli; [7]): -
- Bakteriostatische Wirksamkeit (Wachstum) (Escherichia coli; [8]): -
- Bakteriostatische Wirksamkeit (Wachstum) (Proteus mirabilis; Konzentration in Wasser 0,1 %): -
- Bakteriostatische Wirksamkeit (Wachstum) (Proteus mirabilis; Konzentration in Wasser 0,2 %): -
- Bakteriostatische Wirksamkeit (Wachstum) (Proteus mirabilis; Konzentration in Wasser 0,4 %): -
- Bakteriostatische Wirksamkeit (Wachstum) (Proteus mirabilis; Konzentration in Wasser 0,05 %): -
- Bakteriostatische Wirksamkeit (Wachstum) (Proteus mirabilis; Konzentration in Wasser 0,8 %): -
- Bakteriostatische Wirksamkeit (Wachstum) (Proteus mirabilis; [4]): ⊕⊕
- Bakteriostatische Wirksamkeit (Wachstum) (Proteus mirabilis; [5]): ⊕⊕
- Bakteriostatische Wirksamkeit (Wachstum) (Proteus mirabilis; [6]): ⊕⊕
- Bakteriostatische Wirksamkeit (Wachstum) (Proteus mirabilis; [7]): -
- Bakteriostatische Wirksamkeit (Wachstum) (Proteus mirabilis; [8]): -
- Bakteriostatische Wirksamkeit (Wachstum) (Staphylococcus aureus; Konzentration in Wasser 0,1 %): -
- Bakteriostatische Wirksamkeit (Wachstum) (Staphylococcus aureus; Konzentration in Wasser 0,2 %): -
- Bakteriostatische Wirksamkeit (Wachstum) (Staphylococcus aureus; Konzentration in Wasser 0,4 %): -
- Bakteriostatische Wirksamkeit (Wachstum) (Staphylococcus aureus; Konzentration in Wasser 0,05 %): -
- Bakteriostatische Wirksamkeit (Wachstum) (Staphylococcus aureus; Konzentration in Wasser 0,8 %): -
- Bakteriostatische Wirksamkeit (Wachstum) (Staphylococcus aureus; [4]): ⊕⊕
- Bakteriostatische Wirksamkeit (Wachstum) (Staphylococcus aureus; [5]): ⊕⊕
- Bakteriostatische Wirksamkeit (Wachstum) (Staphylococcus aureus; [6]): ⊕⊕
- Bakteriostatische Wirksamkeit (Wachstum) (Staphylococcus aureus; [7]): -
- Bakteriostatische Wirksamkeit (Wachstum) (Staphylococcus aureus; [8]): -
- Bakteriostatische Wirksamkeit (Wachstum) (Pseudomonas aeruginosa; Konzentration in Wasser 0,1 %): -
- Bakteriostatische Wirksamkeit (Wachstum) (Pseudomonas aeruginosa; Konzentration in Wasser 0,2 %): -
- Bakteriostatische Wirksamkeit (Wachstum) (Pseudomonas aeruginosa; Konzentration in Wasser 0,4 %): -
- Bakteriostatische Wirksamkeit (Wachstum) (Pseudomonas aeruginosa; Konzentration in Wasser 0,05 %): -
- Bakteriostatische Wirksamkeit (Wachstum) (Pseudomonas aeruginosa; Konzentration in Wasser 0,8 %): -
- Bakteriostatische Wirksamkeit (Wachstum) (Pseudomonas aeruginosa; [4]): ⊕⊕
- Bakteriostatische Wirksamkeit (Wachstum) (Pseudomonas aeruginosa; [5]): ⊕⊕
- Bakteriostatische Wirksamkeit (Wachstum) (Pseudomonas aeruginosa; [6]): ⊕⊕
- Bakteriostatische Wirksamkeit (Wachstum) (Pseudomonas aeruginosa; [7]): ⊕⊕
- Bakteriostatische Wirksamkeit (Wachstum) (Pseudomonas aeruginosa; [8]): ⊕⊕
- Konzentration, durch die Pseudomonas aeruginosa gehemmt wird (minimale Hemmkonzentration) (Pseudomonas aeruginosa; single substance, resistentester Testkeim): 0,05%
- Konzentration erforderlich zur Erreichung dieses Effektes (Reduktion der Sporen von 6 log-Stufen) [1]: 0,6%
- Zellwachstum [2]: vollständigen Inhibierung des Zellwachstums
- Median der Zellzahl ([2]; Prüfkonzentration 0,001 %): 17,9 % der Kontrolle
- Median der Zellzahl ([2]; Prüfkonzentration 0,0015 %): 7,3 % der Kontrolle
- Glucosestoffwechsel der FL-Zellen [3]: signifikante, aber reversible Verminderung
